In ChEMBL document CHEMBL5058646 (2022) one finds LogFC, inhibition and Tm data, which are given here for one molecule.

Assay [1] has as its target T1, Zinc finger and BTB domain-containing protein 2 (Homo sapiens) (UniProt Q8N680).
T1 sequence (whole entry): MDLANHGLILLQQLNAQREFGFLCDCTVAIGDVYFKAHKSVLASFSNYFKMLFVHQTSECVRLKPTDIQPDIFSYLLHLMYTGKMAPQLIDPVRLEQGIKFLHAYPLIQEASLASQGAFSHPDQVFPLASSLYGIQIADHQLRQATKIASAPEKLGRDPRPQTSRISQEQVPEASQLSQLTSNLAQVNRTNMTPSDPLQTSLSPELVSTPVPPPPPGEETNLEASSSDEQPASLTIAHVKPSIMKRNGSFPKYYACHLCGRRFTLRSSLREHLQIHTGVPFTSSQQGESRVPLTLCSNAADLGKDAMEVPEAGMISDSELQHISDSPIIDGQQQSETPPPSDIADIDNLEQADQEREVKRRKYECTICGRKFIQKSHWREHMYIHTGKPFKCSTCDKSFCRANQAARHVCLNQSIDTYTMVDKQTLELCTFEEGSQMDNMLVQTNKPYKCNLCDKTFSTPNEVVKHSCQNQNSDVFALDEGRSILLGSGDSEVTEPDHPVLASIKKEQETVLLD
To be noted: OCI-Ly1, Compound concentration 1.0 uM.

Assay [2] deals with 5-hydroxytryptamine receptor 1A (Homo sapiens) (UniProt P08908). To be noted: Compound concentration 10.0 uM.
5-hydroxytryptamine receptor 1A (Homo sapiens), sequence (P08908 whole entry): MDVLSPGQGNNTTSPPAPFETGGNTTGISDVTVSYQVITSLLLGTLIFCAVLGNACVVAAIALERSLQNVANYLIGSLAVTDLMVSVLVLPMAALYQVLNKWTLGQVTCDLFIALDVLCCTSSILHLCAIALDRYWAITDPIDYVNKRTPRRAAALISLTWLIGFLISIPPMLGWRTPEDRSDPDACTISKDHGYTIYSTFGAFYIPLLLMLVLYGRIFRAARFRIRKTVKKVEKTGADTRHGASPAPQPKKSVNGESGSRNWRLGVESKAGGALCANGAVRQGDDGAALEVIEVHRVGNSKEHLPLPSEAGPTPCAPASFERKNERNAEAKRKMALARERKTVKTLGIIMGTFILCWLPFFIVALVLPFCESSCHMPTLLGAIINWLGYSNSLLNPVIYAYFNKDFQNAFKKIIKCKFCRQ
Assay [3] addresses BMP-2-inducible protein kinase (Homo sapiens) (UniProt Q9NSY1). Briefly: BMP2K SGC Tm panel (DSF). The conditions noted are these: Compound concentration 20.0 uM.
Assay [4] addresses T2, Zinc finger and BTB domain-containing protein 10 (Homo sapiens) (UniProt Q96DT7).
T2 sequence (whole entry): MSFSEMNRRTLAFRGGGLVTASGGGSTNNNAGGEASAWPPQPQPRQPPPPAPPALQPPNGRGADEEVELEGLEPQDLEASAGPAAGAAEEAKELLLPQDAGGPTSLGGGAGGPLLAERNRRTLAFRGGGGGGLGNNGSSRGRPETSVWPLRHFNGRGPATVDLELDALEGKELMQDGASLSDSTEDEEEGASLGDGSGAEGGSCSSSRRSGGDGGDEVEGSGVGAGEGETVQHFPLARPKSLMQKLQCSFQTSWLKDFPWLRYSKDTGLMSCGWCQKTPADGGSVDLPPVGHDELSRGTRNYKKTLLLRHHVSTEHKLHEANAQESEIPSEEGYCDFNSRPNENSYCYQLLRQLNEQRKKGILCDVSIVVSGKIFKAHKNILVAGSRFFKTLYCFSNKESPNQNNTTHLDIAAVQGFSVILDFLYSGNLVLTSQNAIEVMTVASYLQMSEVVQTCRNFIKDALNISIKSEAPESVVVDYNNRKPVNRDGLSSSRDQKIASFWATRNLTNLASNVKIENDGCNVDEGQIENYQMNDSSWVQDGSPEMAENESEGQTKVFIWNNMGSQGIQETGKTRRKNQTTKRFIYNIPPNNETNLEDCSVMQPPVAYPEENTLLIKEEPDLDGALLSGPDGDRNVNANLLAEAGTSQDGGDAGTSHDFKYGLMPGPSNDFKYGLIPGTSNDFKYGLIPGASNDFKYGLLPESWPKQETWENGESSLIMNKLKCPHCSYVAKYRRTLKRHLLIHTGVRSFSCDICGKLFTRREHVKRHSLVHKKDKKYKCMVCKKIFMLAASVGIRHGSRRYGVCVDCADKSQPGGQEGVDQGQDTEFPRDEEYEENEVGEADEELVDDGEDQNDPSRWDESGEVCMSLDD
To be noted: OCI-Ly1, Compound concentration 1.0 uM.

Assay [5] addresses Histamine H3 receptor (Homo sapiens, UniProt Q9Y5N1). The conditions noted are these: Compound concentration 10.0 uM.
Assay [6] concerns the target Zinc finger and BTB domain-containing protein 43 (Homo sapiens) (UniProt O43298). To be noted: SUD4, Compound concentration 1.0 uM.
Assay [7] has as its target T3, Zinc finger and BTB domain-containing protein 1 (Homo sapiens) (UniProt Q9Y2K1).
T3 sequence (whole entry): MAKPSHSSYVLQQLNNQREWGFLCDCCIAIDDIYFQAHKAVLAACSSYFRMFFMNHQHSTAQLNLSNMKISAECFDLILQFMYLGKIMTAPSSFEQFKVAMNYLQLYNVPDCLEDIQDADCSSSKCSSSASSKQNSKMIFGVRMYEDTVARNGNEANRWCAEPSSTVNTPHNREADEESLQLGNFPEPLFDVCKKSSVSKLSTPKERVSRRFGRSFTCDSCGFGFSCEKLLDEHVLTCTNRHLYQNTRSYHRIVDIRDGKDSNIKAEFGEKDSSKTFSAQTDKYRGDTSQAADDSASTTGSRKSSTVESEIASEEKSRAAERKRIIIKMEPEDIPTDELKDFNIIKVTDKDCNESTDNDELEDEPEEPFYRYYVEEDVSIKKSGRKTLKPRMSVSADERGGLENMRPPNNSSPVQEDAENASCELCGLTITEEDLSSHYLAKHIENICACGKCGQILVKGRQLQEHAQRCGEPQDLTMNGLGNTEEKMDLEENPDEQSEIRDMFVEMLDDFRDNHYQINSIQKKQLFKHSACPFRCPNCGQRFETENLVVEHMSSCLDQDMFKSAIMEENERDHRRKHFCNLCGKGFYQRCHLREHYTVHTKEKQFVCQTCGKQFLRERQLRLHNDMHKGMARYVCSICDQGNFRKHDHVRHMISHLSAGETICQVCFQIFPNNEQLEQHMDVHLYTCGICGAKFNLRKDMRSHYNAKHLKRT
To be noted: SUD4, Compound concentration 1.0 uM.

For assay [8], the target named is Muscarinic acetylcholine receptor M5 (Homo sapiens) (UniProt P08912). The conditions noted are these: Compound concentration 10.0 uM.
Muscarinic acetylcholine receptor M5 (Homo sapiens), sequence (P08912 whole entry): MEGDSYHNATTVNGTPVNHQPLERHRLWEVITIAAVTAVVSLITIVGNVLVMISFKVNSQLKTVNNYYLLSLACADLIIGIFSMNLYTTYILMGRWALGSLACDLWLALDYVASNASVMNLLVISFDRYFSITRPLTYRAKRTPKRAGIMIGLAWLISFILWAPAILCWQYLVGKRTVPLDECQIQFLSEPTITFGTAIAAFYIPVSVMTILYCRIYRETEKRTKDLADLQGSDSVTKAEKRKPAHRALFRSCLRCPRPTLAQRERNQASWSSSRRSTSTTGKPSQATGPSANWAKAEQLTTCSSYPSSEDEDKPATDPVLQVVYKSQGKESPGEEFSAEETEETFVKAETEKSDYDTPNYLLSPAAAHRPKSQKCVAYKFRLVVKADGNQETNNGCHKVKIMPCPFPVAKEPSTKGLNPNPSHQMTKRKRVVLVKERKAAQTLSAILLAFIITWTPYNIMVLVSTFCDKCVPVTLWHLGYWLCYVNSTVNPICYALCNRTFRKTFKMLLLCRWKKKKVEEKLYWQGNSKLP
The target in assay [9] is Cyclin-dependent kinase-like 1 (Homo sapiens) (UniProt Q00532). Briefly: CDKL1 SGC Tm panel (DSF). To be noted: Compound concentration 20.0 uM.
Cyclin-dependent kinase-like 1 (Homo sapiens), sequence (Q00532 whole entry, the tested form may be a part): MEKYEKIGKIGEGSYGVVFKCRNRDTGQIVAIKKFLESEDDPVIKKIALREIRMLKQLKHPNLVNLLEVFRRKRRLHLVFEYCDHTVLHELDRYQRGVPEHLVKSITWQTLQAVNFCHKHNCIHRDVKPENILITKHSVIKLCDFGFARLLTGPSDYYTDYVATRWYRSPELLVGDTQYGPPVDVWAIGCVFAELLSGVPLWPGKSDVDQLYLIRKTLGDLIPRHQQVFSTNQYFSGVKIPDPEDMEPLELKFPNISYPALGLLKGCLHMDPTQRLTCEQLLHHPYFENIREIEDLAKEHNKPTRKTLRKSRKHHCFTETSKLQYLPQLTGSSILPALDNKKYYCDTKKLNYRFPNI
The target of assay [10] is T4, Zinc finger and BTB domain-containing protein 9 (Homo sapiens) (UniProt Q96C00).
T4 sequence (whole entry): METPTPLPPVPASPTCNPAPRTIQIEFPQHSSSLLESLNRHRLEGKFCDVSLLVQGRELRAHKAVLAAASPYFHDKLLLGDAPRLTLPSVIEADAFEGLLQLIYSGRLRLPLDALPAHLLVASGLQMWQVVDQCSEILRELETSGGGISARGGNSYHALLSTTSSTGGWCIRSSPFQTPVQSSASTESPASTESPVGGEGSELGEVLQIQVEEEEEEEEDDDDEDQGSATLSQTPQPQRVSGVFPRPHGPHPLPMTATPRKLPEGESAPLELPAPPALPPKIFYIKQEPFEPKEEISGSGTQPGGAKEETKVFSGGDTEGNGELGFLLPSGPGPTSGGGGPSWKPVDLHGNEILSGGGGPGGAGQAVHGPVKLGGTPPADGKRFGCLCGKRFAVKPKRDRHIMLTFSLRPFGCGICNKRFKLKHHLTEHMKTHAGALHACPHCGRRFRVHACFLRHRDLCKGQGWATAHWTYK
The conditions noted are these: SUD4, Compound concentration 1.0 uM.

Zinc finger and BTB domain-containing protein 43 (Homo sapiens), sequence (O43298 whole entry, the tested form may be a part): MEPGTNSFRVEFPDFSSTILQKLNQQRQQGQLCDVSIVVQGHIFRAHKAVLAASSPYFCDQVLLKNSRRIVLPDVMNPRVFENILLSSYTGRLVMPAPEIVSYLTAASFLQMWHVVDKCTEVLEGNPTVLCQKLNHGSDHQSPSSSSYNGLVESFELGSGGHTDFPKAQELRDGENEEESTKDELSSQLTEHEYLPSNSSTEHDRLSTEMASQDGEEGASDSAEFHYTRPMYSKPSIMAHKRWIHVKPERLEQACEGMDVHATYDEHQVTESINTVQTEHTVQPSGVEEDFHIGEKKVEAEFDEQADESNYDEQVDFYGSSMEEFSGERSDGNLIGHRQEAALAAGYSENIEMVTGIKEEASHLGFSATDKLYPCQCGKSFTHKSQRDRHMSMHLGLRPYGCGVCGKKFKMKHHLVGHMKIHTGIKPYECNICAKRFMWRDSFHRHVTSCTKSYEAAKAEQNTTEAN
BMP-2-inducible protein kinase (Homo sapiens), sequence (Q9NSY1 whole entry, looked up, the tested form may be a part): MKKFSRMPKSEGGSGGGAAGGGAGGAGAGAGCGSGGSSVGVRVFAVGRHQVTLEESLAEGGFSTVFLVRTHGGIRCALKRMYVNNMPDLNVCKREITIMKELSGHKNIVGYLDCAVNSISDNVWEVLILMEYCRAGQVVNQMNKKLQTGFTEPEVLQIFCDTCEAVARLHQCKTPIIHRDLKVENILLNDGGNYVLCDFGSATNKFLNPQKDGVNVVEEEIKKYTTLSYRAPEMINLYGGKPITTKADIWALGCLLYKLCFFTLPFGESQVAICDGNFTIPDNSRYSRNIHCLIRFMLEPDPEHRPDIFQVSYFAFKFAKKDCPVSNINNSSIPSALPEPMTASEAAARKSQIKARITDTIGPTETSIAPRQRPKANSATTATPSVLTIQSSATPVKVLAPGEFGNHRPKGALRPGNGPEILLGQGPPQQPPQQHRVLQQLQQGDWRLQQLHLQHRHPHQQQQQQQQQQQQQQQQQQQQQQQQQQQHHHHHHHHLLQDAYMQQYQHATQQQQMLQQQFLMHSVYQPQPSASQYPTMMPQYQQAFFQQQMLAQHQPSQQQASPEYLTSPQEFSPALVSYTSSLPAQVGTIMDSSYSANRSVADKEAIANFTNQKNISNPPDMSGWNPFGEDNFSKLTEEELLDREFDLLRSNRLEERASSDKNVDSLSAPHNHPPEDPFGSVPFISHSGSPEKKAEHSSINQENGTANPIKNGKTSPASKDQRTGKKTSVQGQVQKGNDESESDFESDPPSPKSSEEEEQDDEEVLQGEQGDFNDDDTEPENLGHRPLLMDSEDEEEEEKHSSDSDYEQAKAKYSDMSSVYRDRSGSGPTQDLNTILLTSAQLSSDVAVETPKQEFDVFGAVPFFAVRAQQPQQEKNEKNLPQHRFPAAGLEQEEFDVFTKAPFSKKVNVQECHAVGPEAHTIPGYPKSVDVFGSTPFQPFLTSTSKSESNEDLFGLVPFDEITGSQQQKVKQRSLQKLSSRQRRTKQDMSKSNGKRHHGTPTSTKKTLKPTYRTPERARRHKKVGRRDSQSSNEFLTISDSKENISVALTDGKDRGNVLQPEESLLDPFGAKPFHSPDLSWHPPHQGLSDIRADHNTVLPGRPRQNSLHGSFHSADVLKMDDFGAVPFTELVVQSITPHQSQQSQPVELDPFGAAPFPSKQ
Histamine H3 receptor, sequence (Q9Y5N1 whole entry, the tested form may be a part): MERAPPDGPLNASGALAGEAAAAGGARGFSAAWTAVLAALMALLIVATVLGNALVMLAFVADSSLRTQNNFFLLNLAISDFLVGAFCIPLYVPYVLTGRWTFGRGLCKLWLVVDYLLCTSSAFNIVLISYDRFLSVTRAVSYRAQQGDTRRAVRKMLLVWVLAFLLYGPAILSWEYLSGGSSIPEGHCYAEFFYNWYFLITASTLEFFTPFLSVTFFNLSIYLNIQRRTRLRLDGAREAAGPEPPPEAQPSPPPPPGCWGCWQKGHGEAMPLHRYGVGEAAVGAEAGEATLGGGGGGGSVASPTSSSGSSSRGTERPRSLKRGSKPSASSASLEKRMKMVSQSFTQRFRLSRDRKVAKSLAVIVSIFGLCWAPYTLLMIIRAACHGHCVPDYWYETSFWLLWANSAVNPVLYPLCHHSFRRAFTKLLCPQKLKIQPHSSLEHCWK

Turning to `C[C@@H]1CN(c2ncc(Cl)c(Nc3ccc4c(c3)n(CCC(C)(C)O)c(=O)n4C)n2)C[C@H](C)C1(F)F`, the LogFC in assay [1] is 0.239; in [4], 0.103; in [6], 0.0389; in [7] it was -0.0255; in assay [10] it was -0.0222. Moreover, the inhibition (commonly the share of the control response that was lost under treatment) in assay [2] is 5.99%; in [5], 60.7%; in assay [8] it was 20.6%. Further, the figures for the Tm in assay [3] and in [9] were 43 °C and 45 °C, respectively.
